“Also recorded” adds a separate entry of the source.
Columns and labels:
[1] = test system: patients with opioid use disorder (DSM-5 moderate to severe) using opioids for at least three months; assay: Medical chart review of a fifteen-patient outpatient neurology cohort whose opioids were replaced with low-dose Lyrica (pregabalin); format: in vivo, human
Description: Summary of Experimental Results: Over the span of several years, the present inventor, who is a practicing neurologist, tested various different drugs at varying doses in an attempt to assist patients in their outpatient general neurological practice with cessation of opioid use. Through extensive experimentation, the physician discovered that 25 mg of Lyrica (pregabalin) T.I.D. successfully replaced opioids in a few of their patients, they subsequently expanded their research to other patients.
The charts for the fifteen (15) patients of this cohort were evaluated to ascertain the date that pregabalin was initiated, and the starting dose; the pregabalin dose as of the last available medical record; concomitant pain/CNS medications and concomitant non-pain/CNS medications; records of opioid use, type of opioid and dose (when available); and the temporal relationship between starting pregabalin and no longer requiring opioids. The medications in patient charts were compared with the accompanying medication list for each patient. As these were medical charts, the review was conducted to the extent that information was available.
Diagnosis of opioid use disorder: As a part of the medical chart review, the investigating physician assessed the fifteen (15) patients against the DSM-5 diagnostic criteria for OUD, defined “ . . . as a problematic pattern of opioid use leading to clinically significant impairment or distress, as manifested by at least two (2) pre-defined symptoms.” These criteria include eleven symptoms or behaviors occurring within a 12-month period. A diagnosis of mild OUD requires the presence of 2-3 symptoms, moderate 4-5 symptoms, and severe 6 or more symptoms. Of the fifteen (15) patients, seven (7) had scores in the moderate range and eight (8) had scores in the severe range.

neuropathic pain = conditions: doses of up to 150 mg a day; cited from earlier work

CC(C)C[C@H](CN)CC(=O)O [pregabalin, (S)-(+)-3-aminomethyl-5-methyl-hexanoic acid]
patients for whom opioids were successfully replaced ([1]; 25 mg Lyrica (pregabalin) T.I.D., patients had been using opioids for at least three months, cohort of 15): 15 patients
cravings for opioids ([1]; each of the fifteen patients, low-dose pregabalin): complete cessation of cravings for opioids
side effects or withdrawal symptoms ([1]; fifteen patients, opioids replaced with low-dose pregabalin): no reported side effects or withdrawal symptoms; also recorded: none of the fifteen (15) patients experienced side effects or withdrawal symptoms
patients who decreased their opioids temporally related to (after) starting pregabalin ([1]; of fifteen patients): 2 patients
patients who stopped or decreased their opioids temporally related to (after) starting pregabalin ([1]; of fifteen patients, chart review): ≥ 7 patients
patients who stopped their opioids temporally related to (after) starting pregabalin ([1]; of fifteen patients, one continued tramadol 50 mg Q.I.D. prn): 5 patients
patients who elected to return to opioids for other reasons ([1]; of the fifteen-patient cohort, also effectively cured of cravings): 2 patients
remaining patients, none of whom returned to opioids within the observation period ([1]; of the fifteen-patient cohort, opioids replaced with low doses of Lyrica (pregabalin)): 13 patients
patients started on pregabalin who stopped or decreased their use of opioids (total) ([1]; of the patient charts reviewed (fifteen)): ≥ 11 patients
patients who stopped their opioids while on pregabalin, relative timing not definitively established ([1]; of the remaining eight patients): 4 patients
efficacy for the indicated treatment of neuropathic pain (neuropathic pain): consistently ineffective

Reference: US20240139135A1, “[…] TREATMENT OF OPIOID USE DISORDER” (THE TRUSTEES OF INDIANA UNIVERSITY, priority 2019, published 2024)
